Measurements as given in patent US20060106049A1, “Histone deacetylase inhibitors and methods of use” (The University of chicago, priority 2004, published 2006).
Entries after “also recorded” stand apart in the source; their conditions may differ.

Legend:
MDR1 = assay: Gene re-expression by REAL-time RT-PCR in peripheral blood mononuclear cells (MDR1); type: in vivo, human; settings: hr 4 on days 1 and 8; normalized to ABL; p=0.04
Method: (§1) FK228 (Fujisawa, Osaka, Japan) was administered intravenously over four hours at a dose of 13.3 mg/m^2/d on days 1, 8, and 15 of a 28-day cycle. Peripheral blood mononuclear cells were obtained prior to (hour 0) and 4 hours (hour 4) and 24 hours (hour 24) after dosing on days 1 and 8 and used to evaluate histone acetylation by flow cytometry and gene re-expression by REAL-time RT-PCR. Target genes of interest include MDR1, a target of HDI-mediated upregulation, and p15^INK4B (P15), a target of DNA hypermethylation in AML.
(§2) MDR1 and p15 copy numbers were expressed as a normalized quotient of MDR1 and p15, respectively, to the housekeeping gene ABL.

[1] = Tolerability in Phase II AML study; type: in vivo, human; settings: AML patients, 13.3 mg/m2/d iv days 1, 8, 15 of 28-day cycle
Source text: (§3) Eighteen patients (median age=60 years, age range=25-77 years) with relapsed or refractory AML were enrolled in a multicenter Phase II study of depsipeptide for the treatment of AML. Patients were divided into two groups upon entry into the study: Group A (n=14), which included patients without specific chromosomal abnormalities correlated with recruitment of histone deacetylases; and Group B (n=4), which included patients with chromosomal aberrations associated with recruitment of histone deacetylases, such as t(8;21), inv 16, or t(15; 17).
as §1

p15INK4B (P15) = assay: Gene re-expression by REAL-time RT-PCR in peripheral blood mononuclear cells (p15); type: in vivo, human; settings: normalized to ABL; p-0.01
Method: as §1, §2

bone marrow blasts = assay: Phase II study of depsipeptide in relapsed or refractory AML: anti-leukemic response; type: in vivo, human
Source text: as §3, §1

HDAC [2] = settings: cited from earlier work
H3 acetylation = assay: Histone acetylation by flow cytometry in peripheral blood mononuclear cells; type: in vivo, human
Method: as §1

HDAC [3] = settings: formed from FK228 by dithiothreitol reduction in vitro; cited from earlier work

With C/C=C1\NC(=O)[C@H]2CSSCC/C=C/[C@H](CC(=O)N[C@H](C(C)C)C(=O)N2)OC(=O)[C@H](C(C)C)NC1=O [FK228] the “overall mean increase in MDR1 expression” value (MDR1) was 41%, the “most common adverse effects” value [1] was “grade ½ nausea, vomiting, and fatigue” and the tolerability [1] was “well tolerated”. The “mean increase in p15 expression” value (p15INK4B (P15)) was 91%, the “response of patient having a t(4;21) translocation” value (bone marrow blasts; 13.3 mg/m2/d iv days 1, 8, 15 of 28-day cycle) was “responded to the treatment” and the “objective evidence of response (complete or partial remission) or other anti-leukemic activity” value (bone marrow blasts; Group A (n=14), patients without chromosomal abnormalities correlated with HDAC recruitment, 13.3 mg/m2/d iv over 4 h, days 1, 8, 15 of 28-day cycle) was “No objective evidence of response”. The “patients exhibiting marked reduction of bone marrow blasts” value (bone marrow blasts; Group B (n=4), chromosomal aberrations associated with HDAC recruitment, after one cycle, 13.3 mg/m2/d iv) was 50%, the “time to increase in bone marrow blasts following cessation of therapy” value (bone marrow blasts; both responding Group B patients, antileukemic effect short-lived) was ≤ 30 days and the “hematopoiesis in responding patients” value (bone marrow blasts; responders of Group B, following the second cycle of treatment, 13.3 mg/m2/d iv) was “return to substantially normal hematopoiesis; also recorded: recovery of near-normal hematopoiesis”. For the same compound, the “bone marrow blast percentage in responding patients” value (bone marrow blasts; responders with AML1 translocations (t(8;21), t(4;21)), normocellular marrow after one cycle, 13.3 mg/m2/d iv) was < 5%, the “HDAC inhibition in vivo” value (HDAC [2]) was “strongly inhibits HDAC” and the “patients exhibiting increase H3 acetylation” value (H3 acetylation; 4 of 14 patients) was 28%. The “patients exhibiting an increase in H3 acetylation” value (H3 acetylation; Group B cohort (3 of 4), at 4 and/or 24 hours after dosing) was 75%.
In the case of C/C=C1\NC(=O)[C@@H](CS)NC(=O)[C@@H](C(C)C)NC(=O)C[C@@H](/C=C/CCS)OC(=O)[C@H](C(C)C)NC1=O [FR135313], the HDAC inhibition (HDAC [3]) is listed as “capable of inhibiting HDAC”.
